Key:
[1] = test system: cow's milk-specific T-cell line TCL A; test: T-cell proliferation assay; type: cell-based, human; settings: synthetic peptide, SI≥2 considered positive, FIG. 2
Method: (§1) Synthetic peptides were obtained from JPT technologies. Only peptides containing at least 9 AAs were taken into account, as this is the minimal size for binding to MHC class II molecules and subsequent T-cell recognition (Holland et al, Front Immunol 2013 Jul. 1; 4:172.) Synthetic peptides (JPT technologies) identical to the peptides identified in all batches of the HP of example 1 were dissolved in dimethylsulfoxide (Sigma Aldrich) at a concentration of 5.3 mM. The peptides were tested on cow's milk-specific T-cell lines (TCLs) from three different donors. The peptides were tested on cow's milk protein-specific T-cell lines (TCLs) from three infant donors, diagnosed with cow's milk protein allergy. […] Proliferation was determined as described previously (Ruiter et al, Clin Exp Allergy 2006, 36(3):303-310). Stimulation indexes (Sls, ratio between proliferation of allergen/peptide-stimulated and non-stimulated T cells) were calculated and a SI≥2 was considered positive.
(§2) To confirm that the peptides identified in HP were recognized by T cells, synthetic peptides identical to these identified peptides were tested on cow's milk-specific human TCLs. As there was a considered overlap between the identified peptides, five peptides were tested (Table 7) that were identified in all batches and differed with more than 9A from each other. All tested peptides were able to induce proliferation (FIG. 2). […] This was also seen with the in silico prediction data (data not shown). […] As peptide LIV . . . […] SLL (AA #1-32) did, the region containing AA #28-32 (DISLL) was essential for the response of TCL A. Unexpectedly, TCL C recognized peptide LIV . . . AAS (AA #1-27), while the longer peptide containing the same sequence with 5 additional AAs, LIV . . .

[2] = test system: cow's milk-specific T-cell line TCL C; test: T-cell proliferation assay; type: cell-based, human; settings: synthetic peptide, SI≥2 considered positive, FIG. 2
Method: as §1, §2

For “LIVTQTMKGLDIQKVAGTWYSLAMAAS (beta-lactoglobulin peptide fragment) [SEQ ID NO: 9]”, the “T cell proliferation (stimulation index)” value [1] was “not able to induce proliferation” and the “T cell proliferation (stimulation index)” value [2] was “recognized”.

For “LIVTQTMKGLDIQKVAGTWYSLAMAASDISLL (beta-lactoglobulin peptide fragment) [SEQ ID NO: 11]”, the “T cell proliferation (stimulation index)” value [2] was “not able to induce a proliferative response”.
